Data on 5 compounds can be found in patent US9758561B2 (priority 2014, dated 2017).

For orientation: EC50 means the concentration needed to bring the measured effect to its halfway point.

Common to all, as to type: cell-based
Test [1] has as its target T1, human glucagon receptor (Homo sapiens, UniProt P47871).
T1 construct: expressed in transfected cells; host or cells: HEK-293
Put plainly: cAMP response of HEK-293 cells stably expressing human glucagon receptor (HTRF). The note with it: read-out: EC50 hGlucagon-R. Here is the method:
(§1) For preparation, cells were split into T175 culture flasks and grown overnight to near confluency in medium (DMEM/10% FBS). Medium was then removed and cells washed with PBS lacking calcium and magnesium, followed by proteinase treatment with accutase (Sigma-Aldrich cat. no. A6964). Detached cells were washed and resuspended in assay buffer (1×HBSS; 20 mM HEPES, 0.1% BSA, 2 mM IBMX) and cellular density determined. They were then diluted to 400000 cells/ml and 25 μl-aliquots dispensed into the wells of 96-well plates. For measurement, 25 μl of test compound in assay buffer was added to the wells, followed by incubation for 30 minutes at room temperature. […] Potencies of peptidic compounds at the GLP-1, glucagon and GIP receptors were determined by exposing cells expressing human glucagon receptor (hGlucagon R), human GIP receptor (hGIP-R) or human GLP-1 receptor (hGLP-1R) to the listed compounds at increasing concentrations and measuring the formed cAMP as described in Methods.

For test [2], the target named is T2, human GLP-1 receptor (Homo sapiens, UniProt P43220).
T2 construct: expressed in transfected cells; host or cells: HEK-293
T2 sequence (P43220 24-463): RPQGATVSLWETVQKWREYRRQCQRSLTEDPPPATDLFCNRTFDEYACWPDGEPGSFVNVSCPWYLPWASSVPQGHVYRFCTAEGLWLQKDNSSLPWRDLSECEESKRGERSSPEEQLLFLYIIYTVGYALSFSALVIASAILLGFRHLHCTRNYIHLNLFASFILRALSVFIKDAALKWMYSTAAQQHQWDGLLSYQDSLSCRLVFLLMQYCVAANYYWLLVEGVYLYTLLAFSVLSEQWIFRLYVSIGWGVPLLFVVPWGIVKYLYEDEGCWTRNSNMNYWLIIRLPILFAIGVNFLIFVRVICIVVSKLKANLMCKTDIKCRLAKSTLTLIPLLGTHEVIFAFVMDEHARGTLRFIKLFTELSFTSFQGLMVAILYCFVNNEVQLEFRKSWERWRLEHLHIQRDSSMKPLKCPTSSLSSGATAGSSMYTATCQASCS
Put plainly: cAMP response of HEK-293 cells stably expressing human GLP-1 receptor (HTRF). The note with it: read-out: EC50 hGLP-1R. Summed up: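 HEK-293 cells stably expressing the receptor were taken up in HBSS/20 mM HEPES/0.1% BSA with 2 mM IBMX at 400000 cells/ml. They were exposed to increasing concentrations of peptide for 30 minutes at room temperature, and formed cAMP was measured by HTRF.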
In general terms: Time-resolved FRET reads energy transfer from a long-lived donor to a nearby acceptor.

Test [3] has as its target T3, human GIP receptor (Homo sapiens, UniProt P48546).
T3 construct: expressed in transfected cells; host or cells: HEK-293
T3 sequence (P48546 22-466): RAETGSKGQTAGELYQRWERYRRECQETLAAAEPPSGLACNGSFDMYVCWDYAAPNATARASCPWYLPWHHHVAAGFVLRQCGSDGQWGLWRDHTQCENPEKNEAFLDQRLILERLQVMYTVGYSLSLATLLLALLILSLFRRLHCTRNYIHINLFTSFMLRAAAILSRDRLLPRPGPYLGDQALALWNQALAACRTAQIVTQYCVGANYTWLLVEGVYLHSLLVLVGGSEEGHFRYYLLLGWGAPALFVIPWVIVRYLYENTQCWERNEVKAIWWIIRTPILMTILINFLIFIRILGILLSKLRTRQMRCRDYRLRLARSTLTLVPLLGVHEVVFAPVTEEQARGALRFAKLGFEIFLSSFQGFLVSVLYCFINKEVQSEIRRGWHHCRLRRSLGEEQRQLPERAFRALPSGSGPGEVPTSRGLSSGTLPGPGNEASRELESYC
Description: cAMP response of HEK-293 cells stably expressing human GIP receptor (HTRF). The method, then: as §1

Where [4] appears, read: Table 7, comparison of residue in position 14.

Where two headings read alike, the source gives them in different places.

T1 sequence (P47871 26-477): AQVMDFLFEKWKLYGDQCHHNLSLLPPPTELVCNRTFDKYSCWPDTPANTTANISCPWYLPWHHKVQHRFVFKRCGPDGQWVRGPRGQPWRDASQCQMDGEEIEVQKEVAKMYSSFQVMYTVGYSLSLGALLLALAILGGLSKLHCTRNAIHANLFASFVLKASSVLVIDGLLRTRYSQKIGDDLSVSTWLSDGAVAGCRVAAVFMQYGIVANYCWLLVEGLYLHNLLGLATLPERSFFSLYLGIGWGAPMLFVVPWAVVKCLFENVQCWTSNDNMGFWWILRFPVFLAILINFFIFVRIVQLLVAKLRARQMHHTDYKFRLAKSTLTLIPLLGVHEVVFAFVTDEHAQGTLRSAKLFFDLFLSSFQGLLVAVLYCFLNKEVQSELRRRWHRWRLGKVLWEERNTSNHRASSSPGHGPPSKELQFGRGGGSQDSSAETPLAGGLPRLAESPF

As for `CCCCCCCCCCCCCCCC(=O)N[C@@H](CCC(=O)N[C@@H](CCC(=O)NCCCC[C@H](NC(=O)[C@H](CCC(N)=O)NC(=O)[C@H](CCCCN)NC(=O)[C@H](CO)NC(=O)[C@H](CC(C)C)NC(=O)[C@H](CC(=O)O)NC(=O)[C@H](CO)NC(=O)[C@@H](NC(=O)[C@H](Cc1ccccc1)NC(=O)[C@@H](NC(=O)CNC(=O)[C@H](CCC(N)=O)NC(=O)[C@H](CO)NC(=O)[C@@H](N)Cc1c[nH]cn1)[C@@H](C)O)[C@@H](C)O)C(=O)N[C@@H](CC(=O)O)C(=O)N[C@@H](CCC(=O)O)C(=O)N[C@@H](CCC(=O)O)C(=O)N[C@@H](C)C(=O)N[C@@H](C)C(=O)N[C@@H](CCCNC(=N)N)C(=O)N[C@@H](CC(C)C)C(=O)N[C@@H](Cc1ccccc1)C(=O)N[C@H](C(=O)N[C@@H](CCC(=O)O)C(=O)N[C@@H](Cc1c[nH]c2ccccc12)C(=O)N[C@@H](CC(C)C)C(=O)NC(C)(C)C(=O)N[C@@H](C)C(=O)NCC(=O)NCC(=O)N1CCC[C@H]1C(=O)N[C@@H](CO)C(=O)N[C@@H](CO)C(=O)NCC(=O)N[C@@H](C)C(=O)N1CCC[C@H]1C(=O)N1CCC[C@H]1C(=O)N1CCC[C@H]1C(=O)N[C@@H](CO)C(N)=O)[C@@H](C)CC)C(=O)O)C(=O)O` [SEQ ID NO: 11, H-S-Q-G-T-F-T-S-D-L-S-K-Q-K(γE-γE-x53)-D-E-E-A-A-R-L-F-I-E-W-L-Aib-A-G-G-P-S-S-G-A-P-P-P-S-NH2], the EC50 in test [1] (Table 6) is 5.1 pM; in test [2] (Table 6) it was 1.2 pM; in test [3] (Table 6, read-out: EC50 hGIP-R), 560 pM.
`CCCCCCCCCCCCCCCCCC(=O)N[C@@H](CCC(=O)NCCCC[C@H](NC(=O)[C@H](CCC(N)=O)NC(=O)[C@H](CCCCN)NC(=O)[C@H](CO)NC(=O)[C@H](CC(C)C)NC(=O)[C@H](CC(=O)O)NC(=O)[C@H](CO)NC(=O)[C@@H](NC(=O)[C@H](Cc1ccccc1)NC(=O)[C@@H](NC(=O)CNC(=O)[C@H](CCC(N)=O)NC(=O)[C@@H](CO)NC(=O)[C@@H](N)Cc1c[nH]cn1)[C@@H](C)O)[C@@H](C)O)C(=O)N[C@@H](CC(=O)O)C(=O)N[C@@H](CCC(=O)O)C(=O)N[C@@H](CCC(=O)O)C(=O)N[C@@H](C)C(=O)N[C@@H](C)C(=O)N[C@@H](CCCNC(=N)N)C(=O)N[C@@H](CC(C)C)C(=O)N[C@@H](Cc1ccccc1)C(=O)N[C@H](C(=O)N[C@@H](CCC(=O)O)C(=O)N[C@@H](Cc1c[nH]c2ccccc12)C(=O)N[C@@H](CC(C)C)C(=O)NC(C)(C)C(=O)N[C@@H](C)C(=O)NCC(=O)NCC(=O)N1CCC[C@H]1C(=O)N[C@@H](CO)C(=O)N[C@@H](CO)C(=O)NCC(=O)N[C@@H](C)C(=O)N1CCC[C@H]1C(=O)N1CCC[C@H]1C(=O)N1CCC[C@H]1C(=O)N[C@@H](CO)C(N)=O)[C@@H](C)CC)C(=O)O` [SEQ ID NO: 13, H-dSer-Q-G-T-F-T-S-D-L-S-K-Q-K(γE-x70)-D-E-E-A-A-R-L-F-I-E-W-L-Aib-A-G-G-P-S-S-G-A-P-P-P-S-NH2]: the concentration giving a half-maximal response (EC50) was 6.8 pM in test [1] (Table 6); 2.7 pM in test [2] (Table 6); 2540 pM in test [3] (Table 6, read-out: EC50 hGIP-R).
Regarding `CCCCCCCCCCCCCCCC(=O)N[C@@H](CCC(=O)N[C@@H](CCC(=O)NCCCC[C@H](NC(=O)[C@H](CCC(N)=O)NC(=O)[C@H](CCCCN)NC(=O)[C@H](CO)NC(=O)[C@H](CC(C)C)NC(=O)[C@H](CC(=O)O)NC(=O)[C@H](CO)NC(=O)[C@@H](NC(=O)[C@H](Cc1ccccc1)NC(=O)[C@@H](NC(=O)CNC(=O)[C@H](CCC(N)=O)NC(=O)[C@@H](CO)NC(=O)[C@@H](N)Cc1c[nH]cn1)[C@@H](C)O)[C@@H](C)O)C(=O)N[C@@H](CCC(=O)O)C(=O)N[C@@H](CCC(=O)O)C(=O)N[C@@H](CCC(=O)O)C(=O)N[C@@H](C)C(=O)N[C@@H](C)C(=O)N[C@@H](CCCNC(=N)N)C(=O)N[C@@H](CC(C)C)C(=O)N[C@@H](Cc1ccccc1)C(=O)N[C@H](C(=O)N[C@@H](CCC(=O)O)C(=O)N[C@@H](Cc1c[nH]c2ccccc12)C(=O)N[C@@H](CC(C)C)C(=O)NC(C)(C)C(=O)N[C@@H](C)C(=O)NCC(=O)NCC(=O)N1CCC[C@H]1C(=O)N[C@@H](CO)C(=O)N[C@@H](CO)C(=O)NCC(=O)N[C@@H](C)C(=O)N1CCC[C@H]1C(=O)N1CCC[C@H]1C(=O)N1CCC[C@H]1C(=O)N[C@@H](CO)C(N)=O)[C@@H](C)CC)C(=O)O)C(=O)O` [SEQ ID NO: 16, H-dSer-Q-G-T-F-T-S-D-L-S-K-Q-K(γE-γE-x53)-E-E-E-A-A-R-L-F-I-E-W-L-Aib-A-G-G-P-S-S-G-A-P-P-P-S-NH2], the EC50 in test [1] (Table 6) came out at 35.4 pM; in test [2] (Table 6), 1.8 pM; in test [3] (Table 6, read-out: EC50 hGIP-R) it was 7780 pM.
In the case of `CCCCCCCCCCCCCCCC(=O)N[C@@H](CCC(=O)N[C@@H](CCC(=O)NCCCC[C@H](NC(=O)[C@H](CCC(N)=O)NC(=O)[C@H](CCCCN)NC(=O)[C@H](CO)NC(=O)[C@H](CC(C)C)NC(=O)[C@H](CC(=O)O)NC(=O)[C@H](CO)NC(=O)[C@@H](NC(=O)[C@H](Cc1ccccc1)NC(=O)[C@@H](NC(=O)CNC(=O)[C@H](Cc1c[nH]cn1)NC(=O)[C@@H](CO)NC(=O)[C@@H](N)Cc1c[nH]cn1)[C@@H](C)O)[C@@H](C)O)C(=O)N[C@@H](CCC(=O)O)C(=O)N[C@@H](CCC(=O)O)C(=O)N[C@@H](CCC(=O)O)C(=O)N[C@@H](C)C(=O)N[C@@H](C)C(=O)N[C@@H](CCCNC(=N)N)C(=O)N[C@@H](CC(C)C)C(=O)N[C@@H](Cc1ccccc1)C(=O)N[C@H](C(=O)N[C@@H](CCC(=O)O)C(=O)N[C@@H](Cc1c[nH]c2ccccc12)C(=O)N[C@@H](CC(C)C)C(=O)N[C@@H](CCCCN)C(=O)N[C@@H](C)C(=O)NCC(=O)NCC(=O)N1CCC[C@H]1C(=O)N[C@@H](CO)C(=O)N[C@@H](CO)C(=O)NCC(=O)N[C@@H](C)C(=O)N1CCC[C@H]1C(=O)N1CCC[C@H]1C(=O)N1CCC[C@H]1C(=O)N[C@@H](CO)C(N)=O)[C@@H](C)CC)C(=O)O)C(=O)O` [SEQ ID NO: 30, H-dSer-H-G-T-F-T-S-D-L-S-K-Q-K(γE-γE-x53)-EEEAARLFIEWLKAGGPSSGAPPPS-NH2, reference compound], in test [1] (Table 8, comparison Aib vs. Lys in position 27), the EC50 is 5.1 pM.
As to `CCCCCCCCCCCCCCCC(=O)N[C@@H](CCC(=O)N[C@@H](CCC(=O)NCCCC[C@H](NC(=O)[C@H](CCC(N)=O)NC(=O)[C@H](CCCCN)NC(=O)[C@H](CO)NC(=O)[C@H](CC(C)C)NC(=O)[C@H](CC(=O)O)NC(=O)[C@H](CO)NC(=O)[C@@H](NC(=O)[C@H](Cc1ccccc1)NC(=O)[C@@H](NC(=O)CNC(=O)[C@H](CCC(N)=O)NC(=O)[C@@H](CO)NC(=O)[C@@H](N)Cc1c[nH]cn1)[C@@H](C)O)[C@@H](C)O)C(=O)N[C@@H](CC(=O)O)C(=O)N[C@@H](CCC(=O)O)C(=O)N[C@@H](CCC(=O)O)C(=O)N[C@@H](C)C(=O)N[C@@H](C)C(=O)N[C@@H](CCCNC(=N)N)C(=O)N[C@@H](CC(C)C)C(=O)N[C@@H](Cc1ccccc1)C(=O)N[C@H](C(=O)N[C@@H](CCC(=O)O)C(=O)N[C@@H](Cc1c[nH]c2ccccc12)C(=O)N[C@@H](CC(C)C)C(=O)N[C@@H](CCCCN)C(=O)N[C@@H](C)C(=O)NCC(=O)NCC(=O)N1CCC[C@H]1C(=O)N[C@@H](CO)C(=O)N[C@@H](CO)C(=O)NCC(=O)N[C@@H](C)C(=O)N1CCC[C@H]1C(=O)N1CCC[C@H]1C(=O)N1CCC[C@H]1C(=O)N[C@@H](CO)C(N)=O)[C@@H](C)CC)C(=O)O)C(=O)O` [SEQ ID NO: 32, H-dSer-Q-G-T-F-T-S-D-L-S-K-Q-K(γE-γE-x53)-DEEAARLFIEWLKAGGPSSGAPPPS-NH2, reference compound], the EC50 turned out to be 5.5 pM in test [1] (setting [4]); 1.9 pM in test [2] (setting [4]); 565 pM in test [3] (Table 7, comparison of residue in position 14, read-out: EC50 hGIP-1).
